According to BindingDB's records for doi:10.7270/Q2TX3CTT (Broad Institute, 2010):
Counter-ions that a name gives are not always drawn.

molecular target: Glycogen synthase kinase-3 beta (Homo sapiens, UniProt P49841); test: GSK3beta kinase inhibitor potency, dose response, biochemical, luminescence, cell-free homogeneous, retest (AID 434954)
Sequence (P49841 whole entry): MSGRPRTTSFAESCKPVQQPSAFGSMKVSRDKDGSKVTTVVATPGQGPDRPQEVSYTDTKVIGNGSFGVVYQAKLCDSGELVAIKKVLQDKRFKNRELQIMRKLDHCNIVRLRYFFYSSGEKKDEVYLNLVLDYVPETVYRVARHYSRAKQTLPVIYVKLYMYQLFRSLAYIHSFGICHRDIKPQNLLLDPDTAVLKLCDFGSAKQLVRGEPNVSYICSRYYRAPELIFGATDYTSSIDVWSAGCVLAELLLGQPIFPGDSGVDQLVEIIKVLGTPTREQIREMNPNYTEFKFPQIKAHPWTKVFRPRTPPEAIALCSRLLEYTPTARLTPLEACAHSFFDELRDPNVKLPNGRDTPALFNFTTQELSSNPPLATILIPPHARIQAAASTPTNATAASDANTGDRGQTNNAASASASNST

| SMILES | EC50 [µM] |
| --- | --- |
| CC1CN(C(=O)CCc2cc(C(C)(C)C)c(O)c(C(C)(C)C)c2)CC(C)O1 (stereo not drawn) [3-(3,5-ditert-butyl-4-hydroxyphenyl)-1-(2,6-dimethyl-4-morpholinyl)-1-propanone] | > 300 |
| Cn1c(SCC(=O)NC2CCCCC2)nnc1-c1ccccn1 | > 300 |
| O=C1Nc2ccccc2/C1=N/c1cccc([N+](=O)[O-])c1 [MLS001194693] | > 300 |
| CCOC(=O)c1cnc2c(OC)cccc2c1N1CCN(c2ccc(OC)cc2)CC1 | > 300 |
| CC1(C)N=C(N)N=C(N)N1c1ccc(Oc2ccc(Cl)cc2)c(Cl)c1 [1-[3-chloro-4-(4-chlorophenoxy)phenyl]-6,6-dimethyl-1,3,5-triazine-2,4-diamine;hydrochloride] | > 300 |
| Cc1sc2ncnc(N3CCCCC3C)c2c1C (stereo not drawn) | > 300 |
| CCCn1nc(NC(=O)c2cccs2)c2cc3cc(OC)ccc3nc21 [N-(6-methoxy-1-propyl-3-pyrazolo[3,4-b]quinolinyl)-2-thiophenecarboxamide] | 44.5 |
| COc1ccc(C(=O)NCC(=O)NN=Cc2ccc(C)o2)cc1OC [3,4-dimethoxy-N-(2-{2-[(5-methyl-2-furyl)methylene]hydrazino}-2-oxoethyl)benzamide] | > 300 |
| COC(=O)C(CC(C)C)NC(=O)CSc1nc(-c2ccccc2)c(C#N)c(=O)[nH]1 (stereo not drawn) | > 300 |
| CCOc1ccc2nc(NC(=O)CSc3nc4cccnc4n3C)sc2c1 | 1.25 |
| Cc1nc(Nc2ccc(S(N)(=O)=O)cc2)sc1C(=O)Nc1ccccc1 [4-methyl-N-phenyl-2-(4-sulfamoylanilino)-5-thiazolecarboxamide] | > 300 |
| COc1cc(-c2n[nH]c3c2C(c2ccco2)C(C#N)C(=N)O3)cc(OC)c1OC (stereo not drawn) [MLS000698887] | 8.59 |
| N#Cc1c(N)n(-c2cccc(O)c2)c2nc3ccccc3nc12 [SMR000413688] | > 300 |
| CS(=O)(=O)c1nncn1-c1ccccc1 [MLS000062086] | > 300 |
| N#Cc1c(O)nc(-c2ccncc2)nc1-c1ccccc1 [4-oxidanylidene-6-phenyl-2-pyridin-4-yl-1H-pyrimidine-5-carbonitrile] | > 300 |
| CC[n+]1c(CC=Nc2ccccc2)sc2ccccc21 | > 300 |
| Cn1c(SCc2nc(-c3ccccc3)no2)nnc1-c1ccco1 | > 300 |
| CCOC(=O)c1ccc(NC(=O)CN(C)S(=O)(=O)c2ccc(Br)s2)cc1 [ethyl 4-[2-[(5-bromanylthiophen-2-yl)sulfonyl-methyl-amino]ethanoylamino]benzoate] | > 300 |
| Nc1nc(NCCCN2CCOCC2)nc(Nc2cccc(F)c2)c1[N+](=O)[O-] [SMR000436037] | 87.5 |
| O=C(NN=Cc1ccco1)Nc1cccc(Cl)c1 [SMR000203570] | 38.1 |
| O=C1C[C@@H](c2ccc(O)c(O)c2)Oc2cc(O)cc(O)c21 [2-[3,4-bis(oxidanyl)phenyl]-5,7-bis(oxidanyl)-2,3-dihydrochromen-4-one] | > 300 |
| O=C1CCCc2oc3ccc(O)cc3c21 [SMR000125008] | > 300 |
| CC1(C)CC(=O)C2C(=Nc3ccccc3NC2c2ccc(F)cc2)C1 (stereo not drawn) [SMR000515995] | > 300 |
| CCCn1c(SCC(=O)Nc2ccc(Cl)cn2)nnc1C1CC1 | 24 |
| COc1cccc2cc(C(=O)NCc3ccc(C)cc3)c(=N)oc12 | > 300 |

| SMILES | EC50 [µM] |
| --- | --- |
| COc1cccc(C2c3cc4c(cc3N=C3CC(C)(C)CC(=O)C32)OCO4)c1 (stereo not drawn) [MLS000522404] | > 300 |
| COc1ccccc1C=NNC(=O)c1nnn(-c2nonc2N)c1CN(C)c1ccccc1 [1-(4-amino-1,2,5-oxadiazol-3-yl)-N-[(2-methoxyphenyl)methylideneamino]-5-[(N-methylanilino)methyl]triazole-4-carboxamide] | 4.14 |
| COc1cc2c(cc1OC)C(C)N(C(=O)c1ccc(Br)o1)CC2 (stereo not drawn) [SMR000269781] | > 300 |
| COc1ccc2nc(NC(=O)CSc3nnc(N)[nH]3)sc2c1 [MLS001138435] | 3.11 |
| COc1ccc(N(CN2C(=O)C3CC=CCC3C2=O)C(=O)c2ccco2)cc1 (stereo not drawn) [N-[(1,3-dioxo-3a,4,7,7a-tetrahydroisoindol-2-yl)methyl]-N-(4-methoxyphenyl)-2-furancarboxamide] | > 300 |
| Cc1c([CH+][N-]NC(=O)COc2ccccc2[N+](=O)[O-])c2ccccc2n1C [N-[(1,2-dimethylindol-3-yl)methylideneamino]-2-(2-nitrophenoxy)acetamide] | > 300 |
| COc1ccc(OC)c(CCNC(=O)c2ccc3c(=O)[nH]c4c(C(=O)NC(C)C)sc(=S)n4c3c2)c1 | > 300 |
| Nc1nc(NCCN2CCOCC2)nc(NCc2ccccc2)c1[N+](=O)[O-] [SMR000434816] | 26.3 |
| Nc1ccc(O)c2c(=O)cc(-c3ccccc3Cl)oc12 [MLS000518334] | 21.5 |
| COc1cccc(C2Nc3ccccc3N=C3CC(C)(C)CC(=O)C32)c1 (stereo not drawn) [MLS001207292] | > 300 |
| COc1cc(C(c2nnnn2C(C)(C)C)N2CCN(c3nc4ccccc4s3)CC2)ccc1O (stereo not drawn) [MLS000027473] | > 300 |
| CCOc1ccccc1Nc1cc(C)nc2ccc(C)cc12 [SMR000473096] | > 300 |
| Cc1ccc(-n2c(=O)c3c4c(sc3n3c(S)nnc23)CCC4)cc1 [SMR000419881] | 44.5 |
| Cc1cc(C(=O)c2ccccc2)c(NC(=O)CN2CCOCC2)s1 [N-[5-methyl-3-(phenylcarbonyl)thiophen-2-yl]-2-morpholin-4-yl-ethanamide] | > 300 |
| O=C(Nc1ccccc1)Nc1ncc([N+](=O)[O-])s1 [MLS001018461] | 27 |
| CC(=O)COc1cc(C)cc2oc(=O)cc(-c3ccccc3)c12 | > 300 |
| Cc1ccc(-c2nn(-c3ccccc3)cc2C=NNS(=O)(=O)c2ccccc2)cc1 [SMR000186234] | > 300 |
| c1ccc(Cn2c(-c3ccco3)nc3nc4ccccc4nc32)cc1 [3-benzyl-2-(furan-2-yl)imidazo[4,5-b]quinoxaline] | > 300 |
| Cc1c(O)c(CN2CCCCC2)cc2c1oc(=O)c1ccccc12 [MLS000551544] | > 300 |
| O=C(c1cccs1)c1coc2ccc(O)c(CN(CCO)CCO)c12 [[4-[[bis(2-hydroxyethyl)amino]methyl]-5-oxidanyl-1-benzofuran-3-yl]-thiophen-2-yl-methanone;hydrochloride] | > 300 |
| Cc1ccc2cc(NC(=O)c3cccc(F)c3)ccc2n1 [3-fluoro-N-(2-methyl-6-quinolinyl)benzamide] | > 300 |
| Nc1nc(NCCO)nc(NCC2CCCO2)c1[N+](=O)[O-] (stereo not drawn) | 9.74 |
| Nn1c(SCc2cccc(Br)c2)nnc1-c1ccncc1 [3-(3-Bromo-benzylsulfanyl)-5-pyridin-4-yl-[1,2,4]triazol-4-ylamine] | > 300 |
| O=C1C2C3C=CC(C3)C2C(=O)N1CCCCCCN1C(=O)C2C3C=CC(C3)C2C1=O (stereo not drawn) [SMR000283963] | > 300 |
| CC(C)=CCc1c(O)cc2c(=O)c3ccc(O)cc3oc2c1O [SMR000470963] | > 300 |

| SMILES | EC50 [µM] |
| --- | --- |
| CN(C)c1nc(-c2cccnc2)nc(-c2ccccc2)c1C#N [SMR000549421] | > 300 |
| Nc1nonc1-n1nnc(C(=O)NN=Cc2ccccn2)c1CNc1ccccc1 [1-(4-amino-1,2,5-oxadiazol-3-yl)-5-(anilinomethyl)-N-(2-pyridinylmethylideneamino)-4-triazolecarboxamide] | > 300 |
| c1cc(CSc2nnc(-c3ccc4c(c3)OCO4)o2)ccn1 [SMR000006350] | 1.71 |
| CCSc1ccc2nnc(-c3ccc(F)cc3)n2n1 [SMR000028943] | 2.82 |
| COc1ccc(-c2nn(-c3ccccc3)cc2/C=C(\C#N)S(=O)(=O)c2ccccc2)cc1OC [(E)-2-(benzenesulfonyl)-3-[3-(3,4-dimethoxyphenyl)-1-phenyl-4-pyrazolyl]-2-propenenitrile] | > 300 |
| CC1(C)CC(CC(=O)NC(=S)Nc2ccc([N+](=O)[O-])cc2)C(=O)O1 (stereo not drawn) [2-(5,5-dimethyl-2-oxotetrahydro-3-furanyl)-N-{[(4-nitrophenyl)amino]carbonothioyl}acetamide] | 26.7 |
| CC(CC(=O)Nc1nnc(C(C)(C)C)s1)c1ccccc1 (stereo not drawn) [MLS001205585] | > 300 |
| O=C(O)COCC(=O)N1CCN(C(c2ccccc2)c2ccccc2)CC1 [2-[2-(4-benzhydrylpiperazino)-2-oxoethoxy]acetic acid] | > 300 |
| O=C(Nc1ccccn1)Nc1cccs1 [MLS000093554] | > 300 |
| Cc1ccc2c(c1)cc1c(O)nncn12 [MLS000551564] | > 300 |
| CCN(CC)C(=O)COC(=O)c1ccc(O)cc1 [[2-(diethylamino)-2-oxoethyl] 4-hydroxybenzoate] | > 300 |
| Nc1nonc1-n1nnc(C(=O)NN=Cc2c(F)cccc2Cl)c1-c1ccc2c(c1)OCO2 [1-(4-amino-1,2,5-oxadiazol-3-yl)-5-(1,3-benzodioxol-5-yl)-N-[(2-chloro-6-fluorophenyl)methylideneamino]-4-triazolecarboxamide] | 1.58 |
| COC(=O)c1ccc(Nc2nc(-c3ccncc3)nc3ccccc23)cc1 [4-[(2-pyridin-4-yl-4-quinazolinyl)amino]benzoic acid methyl ester] | > 300 |
| Nc1ccccc1Nc1cc(-c2ccccc2)[nH]n1 [2-N-(5-phenyl-1H-pyrazol-3-yl)benzene-1,2-diamine] | > 300 |
| Cc1cc(C)c2nc(N(CCN(C)C)C(=O)c3ccc(S(=O)(=O)N(C)CC4CCCO4)cc3)sc2c1 (stereo not drawn) [MLS001239556] | > 300 |
| COc1ccc(OC)c(C(=O)c2coc3ccc(OC(C)=O)cc23)c1 [3-(2,5-dimethoxybenzoyl)-1-benzofuran-5-yl acetate] | > 300 |
| Oc1ccc(-c2nncn2-c2ccccc2)cc1 [SMR000274861] | 7.15 |
| CCCNC(=O)c1ccc(SCC(=O)N(CC)CC)c([N+](=O)[O-])c1 | > 300 |
| Cc1ccc(OCCN(C)C(=O)C2CCC(=O)N(CCCN3CCOCC3)C2)cc1 (stereo not drawn) | > 300 |
| CC1(C)CC(=O)C2C(=Nc3ncnn3C2c2cccs2)C1 (stereo not drawn) [SMR000291528] | 57.1 |
| Cc1ccc(Nc2nc(N)c([N+](=O)[O-])c(NCCO)n2)cc1 [MLS000333433] | 79.7 |
| CCC1(CC)NC(=O)N(CC(=O)OCC(=O)Nc2sccc2C#N)C1=O [[2-[(3-cyanothiophen-2-yl)amino]-2-oxoethyl] 2-(4,4-diethyl-2,5-dioxoimidazolidin-1-yl)acetate] | > 300 |
| Clc1ccccc1CSc1nnc(-c2ccncc2)o1 [2-{[(2-chlorophenyl)methyl]sulfanyl}-5-(pyridin-4-yl)-1,3,4-oxadiazole] | 4.85 |
